Reference: patent publication US7476671B2, “2-amino-imidazo[4,5-d]pyridazin-4-ones, their preparation and their use as pharmaceutical compositions” (Boehringer Ingelheim International GmbH, priority 2004, dated 2009)

System: not listed separately
Test: Tolerability after oral administration
Assay type: in vivo
Settings: oral administration of 10 mg/kg

Compound	toxic side effects / tolerability
CC#CCn1c(N(C)CCN)nc2cnn(Cc3nc(C)c4ccccc4n3)c(=O)c21 [Example 1, 2-[N-(2-aminoethyl)-N-methyl-amino]-3-(2-butyn-1-yl)-5-[(4-methyl-quinazolin-2-yl)methyl]-3,5-dihydro-imidazo[4,5-d]pyridazin-4-one]	no toxic side effects

Biological target: T1, DPP-IV (Homo sapiens, UniProt P27487)
T1 construct: an extract of the human colon carcinoma cell line Caco-2 is used as the DPP IV source; endogenous in cells; host or cells: Caco-2 (human colon carcinoma), differentiated to induce DPP-IV expression; Nonidet-P40 solubilised extract
T1 sequence (P27487 whole entry): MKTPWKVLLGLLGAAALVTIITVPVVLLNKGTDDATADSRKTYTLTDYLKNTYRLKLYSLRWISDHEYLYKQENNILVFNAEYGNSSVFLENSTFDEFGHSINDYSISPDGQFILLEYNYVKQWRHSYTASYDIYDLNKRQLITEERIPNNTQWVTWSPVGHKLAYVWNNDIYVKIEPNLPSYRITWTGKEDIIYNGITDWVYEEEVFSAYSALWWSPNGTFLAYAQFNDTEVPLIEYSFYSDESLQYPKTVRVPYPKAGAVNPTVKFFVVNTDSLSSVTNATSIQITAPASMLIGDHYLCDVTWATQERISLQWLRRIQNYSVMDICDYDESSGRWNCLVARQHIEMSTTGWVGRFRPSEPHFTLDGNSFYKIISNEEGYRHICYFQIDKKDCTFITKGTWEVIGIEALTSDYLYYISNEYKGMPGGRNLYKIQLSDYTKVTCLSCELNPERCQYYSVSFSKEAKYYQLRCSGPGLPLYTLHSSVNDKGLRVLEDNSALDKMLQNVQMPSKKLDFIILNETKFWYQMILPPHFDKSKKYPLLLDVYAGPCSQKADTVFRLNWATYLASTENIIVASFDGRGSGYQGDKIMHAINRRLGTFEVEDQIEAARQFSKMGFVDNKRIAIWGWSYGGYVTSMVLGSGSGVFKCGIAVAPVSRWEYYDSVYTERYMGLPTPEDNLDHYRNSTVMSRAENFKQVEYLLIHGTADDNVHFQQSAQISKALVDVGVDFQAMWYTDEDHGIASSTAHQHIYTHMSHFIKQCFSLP
Test: DPP-IV assay with extract of the human colon carcinoma cell line Caco-2 as DPP IV source, AFC substrate, fluorescence
Assay type: biochemical
Settings: solubilised Caco-2 protein, substrate 100 μM, 60 minutes at ambient temperature, 11-point curves; read-out: DPP IV inhibition IC50
Description: The differentiation of the cells in order to induce the DPP-IV expression was carried out in accordance with the description by Reiher et al. in an article entitled “Increased expression of intestinal cell line Caco-2”, which appeared in Proc. Natl. Acad. Sci. Vol. 90, pp. 5757-5761 (1993).
The cell extract was obtained from cells solubilised in a buffer (10 mM Tris HCl, 0.15 M NaCl, 0.04 t.i.u. aprotinin, 0.5% Nonidet-P40, pH 8.0) by centrifugation at 35,000 g for 30 minutes at 4° C. (to remove cell debris).
The DPP-IV assay was carried out as follows:
50 μl of substrate solution (AFC; AFC is amido-4-trifluoromethylcoumarin), final concentration 100 μM, were placed in black microtitre plates. 20 μl of assay buffer (final concentrations 50 mM Tris HCl, pH 7.8, 50 mM NaCl, 1% DMSO) was pipetted in. The reaction was started by the addition of 30 μl of solubilised Caco-2 protein (final concentration 0.14 μg of protein per well). The test substances under investigation were typically added prediluted to 20 μl, while the volume of assay buffer was then reduced accordingly. The reaction was carried out at ambient temperature, the incubation period was 60 minutes. Then the fluorescence was measured in a Victor 1420 Multilabel Counter, with the excitation wavelength at 405 nm and the emission wavelength at 535 nm. Dummy values (corresponding to 0% activity) were obtained in mixtures with no Caco-2 protein (volume replaced by assay buffer), control values (corresponding to 100% activity) were obtained in mixtures without any added substance. The potencies of the test substances in question, expressed as IC50 values, were calculated from dosage/activity curves consisting of 11 measured points in each case.

Compound	IC50 [nM]
CC#CCn1c(N(C)CCN)nc2cnn(Cc3nc(C)c4ccccc4n3)c(=O)c21 [Example 1, 2-[N-(2-aminoethyl)-N-methyl-amino]-3-(2-butyn-1-yl)-5-[(4-methyl-quinazolin-2-yl)methyl]-3,5-dihydro-imidazo[4,5-d]pyridazin-4-one]	1
CC#CCn1c(N(C)CCN)nc2cnn(Cc3nc(C)cc4ccccc34)c(=O)c21 [1(1), 2-[N-(2-aminoethyl)-N-methyl-amino]-3-(2-butyn-1-yl)-5-[(3-methyl-isoquinolin-1-yl)methyl]-3,5-dihydro-imidazo[4,5-d]pyridazin-4-one]	10
CC#CCn1c(N(C)CC(C)(C)N)nc2cnn(Cc3ccccc3C#N)c(=O)c21 [2(1), 2-[N-(2-amino-2-methyl-propyl)-N-methyl-amino]-3-(2-butyn-1-yl)-5-(2-cyanophenyl-methyl)-3,5-dihydro-imidazo[4,5-d]pyridazin-4-one]	336
CC#CCn1c(N(C)C[C@H](C)N)nc2cnn(Cc3nc(C)c4ccccc4n3)c(=O)c21 [Example 3, (S)-2-[N-(2-aminopropyl)-N-methyl-amino]-3-(2-butyn-1-yl)-5-[(4-methyl-quinazolin-2-yl)methyl]-3,5-dihydro-imidazo[4,5-d]pyridazin-4-one]	2
CC#CCn1c(N(C)C[C@H](C)N)nc2cnn(Cc3ccccc3C#N)c(=O)c21 [Example 2, (S)-2-[N-(2-amino-propyl)-N-methyl-amino]-3-(2-butyn-1-yl)-5-(2-cyanophenylmethyl)-3,5-dihydro-imidazo[4,5-d]pyridazin-4-one]	76
CC#CCn1c(N(C)CCN)nc2ccn(Cc3nc(C)cc4ccccc34)c(=O)c21 [1(2), 2-[N-(2-aminoethyl)-N-methyl-amino]-3-(2-butyn-1-yl)-5-[(3-methyl-isoquinolin-1-yl)methyl]-3,5-dihydro-imidazo[4,5-c]pyridin-4-one]	34
